Results as given in the supplement of paper PMC11451515.

How the values were obtained:
Details in all cases: 48 h
SEM cells [1] = assay: cell viability relative to DMSO control; higher = less cytotoxic
Method in brief: (§1)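 NOMO1 or SEM (500 cells/well) or P12-Ichikawa (1000 cells/well) leukemia cells were adapted for at least four passages in each medium. They were seeded in 1536-well plates (5 μl) and pin-dosed with library compounds in DMSO over an 11-point threefold series, 47 μM to 0.79 nM. CellTiter-Glo One luminescence was read after 48 h at 37°C. Viability is the per-plate percentage relative to DMSO wells, with cell-free wells as background.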

NOMO1 [2] = assay: AUC of viability dose-response curve (% viability x log10 dose units); higher = less sensitive
Method in brief: (§2)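 Medium-adapted leukemia cells in 1536-well plates, at 500 or 1000 cells/well, were incubated for 48 h at 37°C with library compounds in DMSO at 11 threefold doses from 47 μM to 0.79 nM. CellTiter-Glo One luminescence normalised per plate to DMSO and cell-free wells was fitted with a four-parameter log-logistic model over log10 doses. Area under the curve was integrated from this fit by trapezoidal rule, with curves beyond full viability scaled and failed quality-control curves removed.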

P12-Ichikawa [3] = assay: as above
Method in brief: as §2

SEM cells [4] = assay: as above
Method in brief: as §2

NOMO1 [5] = assay: cell viability relative to DMSO control; higher = less cytotoxic
Method in brief: as §1

P12-Ichikawa [6] = assay: as above
Method in brief: as §1

N[C@@H](Cc1c[nH]c2ccc(O)cc12)C(=O)O
SEM cells [1], HPLM + 10% dialyzed FBS
Details	cell viability [%]
0.000781 µM	114
0.00234 µM	110
0.00702 µM	120
0.0211 µM	120
0.0632 µM	94.1
0.19 µM	121
0.569 µM	105
1.71 µM	110
5.12 µM	102
15.4 µM	85
46.1 µM	80.8

AUC of viability dose-response curve
Details	NOMO1 [2]	P12-Ichikawa [3]	SEM cells [4]
HPLM + 10% dialyzed FBS	391	462	454
RPMI 5 mM glucose + 10% FBS	411	444	401
RPMI 5 mM glucose + 10% dialyzed FBS	392	458	398

O=C(c1ccc(/C=C/c2n[nH]c3ccccc23)cc1)N1CCNCC1
cell viability [%]
Details	NOMO1 [5]	P12-Ichikawa [6]	SEM cells [1]
HPLM + 10% dialyzed FBS, 0.000781 µM	108	94.8	82.7
HPLM + 10% dialyzed FBS, 0.00234 µM	96.5	101	77.8
HPLM + 10% dialyzed FBS, 0.00702 µM	88.4	98	83.4
HPLM + 10% dialyzed FBS, 0.0211 µM	87.1	99.4	79
HPLM + 10% dialyzed FBS, 0.0632 µM	97.9	111	60.7
HPLM + 10% dialyzed FBS, 0.19 µM	120	102	53.2
HPLM + 10% dialyzed FBS, 0.569 µM	115	108	48.1
HPLM + 10% dialyzed FBS, 1.71 µM	69.4	9.55	16.3
HPLM + 10% dialyzed FBS, 5.12 µM	70.9	13.2	20
HPLM + 10% dialyzed FBS, 15.4 µM	88.7	12.2	19.3
HPLM + 10% dialyzed FBS, 46.1 µM	73.1	19.6	19.8
RPMI 5 mM glucose + 10% FBS, 0.000781 µM	97	92.6	109
RPMI 5 mM glucose + 10% FBS, 0.00234 µM	100	90.8	120
RPMI 5 mM glucose + 10% FBS, 0.00702 µM	94	100	106
RPMI 5 mM glucose + 10% FBS, 0.0211 µM	85.8	91.3	85.3
RPMI 5 mM glucose + 10% FBS, 0.0632 µM	90.7	101	82.7
RPMI 5 mM glucose + 10% FBS, 0.19 µM	86.2	107	56.2
RPMI 5 mM glucose + 10% FBS, 0.569 µM	87.1	102	62.1
RPMI 5 mM glucose + 10% FBS, 1.71 µM	56.2	13.5	10.9
RPMI 5 mM glucose + 10% FBS, 5.12 µM	63.8	16.9	11.7
RPMI 5 mM glucose + 10% FBS, 15.4 µM	58.4	16.3	12.3
RPMI 5 mM glucose + 10% FBS, 46.1 µM	69	19.5	13.3
RPMI 5 mM glucose + 10% dialyzed FBS, 0.000781 µM	86.5	91.2	75.8
RPMI 5 mM glucose + 10% dialyzed FBS, 0.00234 µM	85.6	95.8	78.2
RPMI 5 mM glucose + 10% dialyzed FBS, 0.00702 µM	88.6	86.5	73.1
RPMI 5 mM glucose + 10% dialyzed FBS, 0.0211 µM	97.2	104	80.2
RPMI 5 mM glucose + 10% dialyzed FBS, 0.0632 µM	87.8	99.7	66.3
RPMI 5 mM glucose + 10% dialyzed FBS, 0.19 µM	97.4	98.3	51.9
RPMI 5 mM glucose + 10% dialyzed FBS, 0.569 µM	93.9	100	38.2
RPMI 5 mM glucose + 10% dialyzed FBS, 1.71 µM	54.9	25.3	15.9
RPMI 5 mM glucose + 10% dialyzed FBS, 5.12 µM	49.5	29.6	15.9
RPMI 5 mM glucose + 10% dialyzed FBS, 15.4 µM	65.5	25.8	14.6
RPMI 5 mM glucose + 10% dialyzed FBS, 46.1 µM	71.2	31.2	13.3

AUC of viability dose-response curve
Details	HPLM + 10% dialyzed FBS	RPMI 5 mM glucose + 10% FBS	RPMI 5 mM glucose + 10% dialyzed FBS
NOMO1 [2]	434	387	383
P12-Ichikawa [3]	332	331	346

Nc1nc(N)nc(-c2cc(Cl)ccc2Cl)n1.O=C(O)/C=C\C(=O)O
AUC of viability dose-response curve
Details	NOMO1 [2]	P12-Ichikawa [3]	SEM cells [4]
HPLM + 10% dialyzed FBS	472	447	447
RPMI 5 mM glucose + 10% FBS	453	460	432
RPMI 5 mM glucose + 10% dialyzed FBS	461	457	459

CNC1CCCN(c2c(F)cc3c(=O)c(C(=O)O)cn(C4CC4)c3c2OC)C1 (stereo not given)
SEM cells [1], HPLM + 10% dialyzed FBS
Details	cell viability [%]
0.000781 µM	120
0.00234 µM	123
0.00702 µM	131
0.0211 µM	139
0.0632 µM	134
0.19 µM	125
0.569 µM	133
1.71 µM	122
5.12 µM	115
15.4 µM	117
46.1 µM	113

AUC of viability dose-response curve
Details	HPLM + 10% dialyzed FBS	RPMI 5 mM glucose + 10% FBS	RPMI 5 mM glucose + 10% dialyzed FBS
P12-Ichikawa [3]	432	441	443
SEM cells [4]	462	445	456

CO[C@H]1/C=C/O[C@@]2(C)Oc3c(C)c(O)c4c(O)c(c(/C=N/N5CCN(C)CC5)c(O)c4c3C2=O)NC(=O)/C(C)=C\C=C\[C@H](C)[C@H](O)[C@@H](C)[C@@H](O)[C@@H](C)[C@H](OC(C)=O)[C@@H]1C
cell viability [%]
Details	NOMO1 [5]	P12-Ichikawa [6]	SEM cells [1]
HPLM + 10% dialyzed FBS, 0.000781 µM	–	116	107
HPLM + 10% dialyzed FBS, 0.00234 µM	–	117	121
HPLM + 10% dialyzed FBS, 0.00702 µM	–	124	130
HPLM + 10% dialyzed FBS, 0.0211 µM	–	120	126
HPLM + 10% dialyzed FBS, 0.0632 µM	–	127	119
HPLM + 10% dialyzed FBS, 0.19 µM	–	114	121
HPLM + 10% dialyzed FBS, 0.569 µM	–	108	119
HPLM + 10% dialyzed FBS, 1.71 µM	–	110	113
HPLM + 10% dialyzed FBS, 5.12 µM	–	99.8	102
HPLM + 10% dialyzed FBS, 15.4 µM	–	94.9	96.1
HPLM + 10% dialyzed FBS, 46.1 µM	–	63.7	67
RPMI 5 mM glucose + 10% FBS, 0.000781 µM	111	128	62.7
RPMI 5 mM glucose + 10% FBS, 0.00234 µM	123	111	84.8
RPMI 5 mM glucose + 10% FBS, 0.00702 µM	117	118	87.1
RPMI 5 mM glucose + 10% FBS, 0.0211 µM	127	118	82.4
RPMI 5 mM glucose + 10% FBS, 0.0632 µM	129	124	77.1
RPMI 5 mM glucose + 10% FBS, 0.19 µM	118	112	78.6
RPMI 5 mM glucose + 10% FBS, 0.569 µM	125	123	75.4
RPMI 5 mM glucose + 10% FBS, 1.71 µM	123	116	74.9
RPMI 5 mM glucose + 10% FBS, 5.12 µM	111	98.3	55
RPMI 5 mM glucose + 10% FBS, 15.4 µM	102	89.9	56
RPMI 5 mM glucose + 10% FBS, 46.1 µM	98.5	75.4	23.5
RPMI 5 mM glucose + 10% dialyzed FBS, 0.000781 µM	118	124	108
RPMI 5 mM glucose + 10% dialyzed FBS, 0.00234 µM	119	120	104
RPMI 5 mM glucose + 10% dialyzed FBS, 0.00702 µM	129	123	104
RPMI 5 mM glucose + 10% dialyzed FBS, 0.0211 µM	115	123	103
RPMI 5 mM glucose + 10% dialyzed FBS, 0.0632 µM	122	122	109
RPMI 5 mM glucose + 10% dialyzed FBS, 0.19 µM	117	111	108
RPMI 5 mM glucose + 10% dialyzed FBS, 0.569 µM	104	109	123
RPMI 5 mM glucose + 10% dialyzed FBS, 1.71 µM	112	115	111
RPMI 5 mM glucose + 10% dialyzed FBS, 5.12 µM	119	93.2	102
RPMI 5 mM glucose + 10% dialyzed FBS, 15.4 µM	96.1	82	90.4
RPMI 5 mM glucose + 10% dialyzed FBS, 46.1 µM	79.6	70.6	66.5

AUC of viability dose-response curve
Details	HPLM + 10% dialyzed FBS	RPMI 5 mM glucose + 10% FBS	RPMI 5 mM glucose + 10% dialyzed FBS
NOMO1 [2]	431	461	461
P12-Ichikawa [3]	441	445	430
